Patent US11945813B2, “5-substituted 4-amino-1H-benzo[c][1,2,6]thiadiazine 2,2-dioxides and formulations and uses thereof” (Firmenich Incorporated, priority 2018, dated 2024)

Target: T1, T1R2/T1R3 taste receptor (Homo sapiens, UniProt Q8TE23)
T1 sequence (Q8TE23 20-839): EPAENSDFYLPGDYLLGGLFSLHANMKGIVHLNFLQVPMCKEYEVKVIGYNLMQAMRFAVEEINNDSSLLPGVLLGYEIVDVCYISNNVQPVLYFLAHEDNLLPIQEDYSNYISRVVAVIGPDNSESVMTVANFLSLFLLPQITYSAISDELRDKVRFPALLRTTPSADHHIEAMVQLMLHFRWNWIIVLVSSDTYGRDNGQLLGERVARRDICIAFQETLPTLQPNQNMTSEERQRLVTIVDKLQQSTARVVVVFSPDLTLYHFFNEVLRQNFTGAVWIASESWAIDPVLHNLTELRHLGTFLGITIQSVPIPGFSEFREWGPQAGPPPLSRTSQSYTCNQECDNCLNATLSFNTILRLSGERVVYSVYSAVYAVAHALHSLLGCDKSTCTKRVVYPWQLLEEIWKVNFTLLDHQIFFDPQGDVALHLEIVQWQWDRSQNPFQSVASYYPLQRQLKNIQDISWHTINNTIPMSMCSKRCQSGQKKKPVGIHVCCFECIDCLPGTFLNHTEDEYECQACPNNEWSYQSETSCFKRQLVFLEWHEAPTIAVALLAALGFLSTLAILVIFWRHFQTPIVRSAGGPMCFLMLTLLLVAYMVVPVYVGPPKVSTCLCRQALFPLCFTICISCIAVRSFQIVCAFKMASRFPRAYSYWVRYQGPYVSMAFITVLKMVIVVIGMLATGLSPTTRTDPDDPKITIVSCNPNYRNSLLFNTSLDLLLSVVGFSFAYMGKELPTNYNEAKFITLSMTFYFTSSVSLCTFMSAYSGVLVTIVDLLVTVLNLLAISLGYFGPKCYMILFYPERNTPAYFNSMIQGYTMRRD
T1 sequence (Q7RTX0 21-852 partner): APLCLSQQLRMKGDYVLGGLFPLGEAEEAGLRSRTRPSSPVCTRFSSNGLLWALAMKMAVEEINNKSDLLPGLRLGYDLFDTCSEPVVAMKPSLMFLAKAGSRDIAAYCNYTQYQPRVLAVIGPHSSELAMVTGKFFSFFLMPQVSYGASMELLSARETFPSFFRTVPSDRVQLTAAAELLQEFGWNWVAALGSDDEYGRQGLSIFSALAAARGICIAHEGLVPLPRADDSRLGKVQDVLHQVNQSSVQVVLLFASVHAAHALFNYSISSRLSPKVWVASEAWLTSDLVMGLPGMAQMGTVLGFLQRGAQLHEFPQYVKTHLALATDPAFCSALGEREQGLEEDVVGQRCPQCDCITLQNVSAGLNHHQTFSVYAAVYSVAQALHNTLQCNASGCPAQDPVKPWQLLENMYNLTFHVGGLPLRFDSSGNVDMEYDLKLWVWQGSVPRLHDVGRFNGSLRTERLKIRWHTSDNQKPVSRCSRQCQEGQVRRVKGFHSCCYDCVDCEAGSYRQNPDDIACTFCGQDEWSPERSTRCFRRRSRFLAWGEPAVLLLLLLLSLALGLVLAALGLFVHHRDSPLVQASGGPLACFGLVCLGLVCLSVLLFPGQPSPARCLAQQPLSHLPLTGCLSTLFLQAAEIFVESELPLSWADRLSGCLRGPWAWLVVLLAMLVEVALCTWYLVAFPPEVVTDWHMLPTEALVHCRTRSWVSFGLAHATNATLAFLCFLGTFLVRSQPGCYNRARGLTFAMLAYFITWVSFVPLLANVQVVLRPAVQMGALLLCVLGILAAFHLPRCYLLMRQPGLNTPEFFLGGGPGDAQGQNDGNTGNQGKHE
Assay: Receptor-based assay: sweetener EC50 alone and with test compound (enhancement ratio)
Assay type: cell-based
Conditions: for Fructose Enhancement EC50 Ratio: sweetener fructose; for Sucralose Enhancement EC50 Ratio: sweetener sucralose; for Sucrose Enhancement EC50 Ratio: sweetener sucrose
Procedure, shortened: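 Sucrose, sucralose or fructose EC50 measured on human T1R2/T1R3, alone and with 3, 10 or 50 μM test compound. Enhancement is the EC50 ratio without/with compound, binned A >20, B 10-20, C >1 to <10.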

| SMILES | Fructose Enhancement EC50 Ratio (10 μM test compound) | Sucralose Enhancement EC50 Ratio (10 μM test compound) | Sucralose Enhancement EC50 Ratio (50 μM test compound) | Sucrose Enhancement EC50 Ratio (3 μM test compound) | Sucrose Enhancement EC50 Ratio (10 μM test compound) | Sucrose Enhancement EC50 Ratio (50 μM test compound) | Fructose Enhancement EC50 Ratio (50 μM test compound) |
| --- | --- | --- | --- | --- | --- | --- | --- |
| CC(C)(COc1cccc2c1C(N)=NS(=O)(=O)N2)Nc1ccccn1 [Compound 101] | C (A “C” value indicates an enhancement ratio greater than 1 and less than 10) | A (An “A” value indicates an enhancement ratio of greater than 20) | A (An “A” value indicates an enhancement ratio of greater than 20) | C (A “C” value indicates an enhancement ratio greater than 1 and less than 10) | C (A “C” value indicates an enhancement ratio greater than 1 and less than 10) | C (A “C” value indicates an enhancement ratio greater than 1 and less than 10) | – |
| COCCNC(=O)c1cccc(N2CCC[C@H](COc3cccc4c3C(N)=NS(=O)(=O)N4)C2)n1 [Compound 405] | C (A “C” value indicates an enhancement ratio greater than 1 and less than 10) | B (A “B” value indicates an enhancement ratio from 10 to 20) | – | C (A “C” value indicates an enhancement ratio greater than 1 and less than 10) | C (A “C” value indicates an enhancement ratio greater than 1 and less than 10) | – | – |
| COCCNc1nccc(NC(C)(C)COc2cccc3c2C(N)=NS(=O)(=O)N3)n1 [Compound 206] | C (A “C” value indicates an enhancement ratio greater than 1 and less than 10) | B (A “B” value indicates an enhancement ratio from 10 to 20) | A (An “A” value indicates an enhancement ratio of greater than 20) | C (A “C” value indicates an enhancement ratio greater than 1 and less than 10) | C (A “C” value indicates an enhancement ratio greater than 1 and less than 10) | C (A “C” value indicates an enhancement ratio greater than 1 and less than 10) | C (A “C” value indicates an enhancement ratio greater than 1 and less than 10) |
| NC1=NS(=O)(=O)Nc2cccc(OC[C@H]3CCCN(c4cccc(C(=O)N5CCCCC5)n4)C3)c21 [Compound 413] | – | B (A “B” value indicates an enhancement ratio from 10 to 20) | A (An “A” value indicates an enhancement ratio of greater than 20) | C (A “C” value indicates an enhancement ratio greater than 1 and less than 10) | C (A “C” value indicates an enhancement ratio greater than 1 and less than 10) | C (A “C” value indicates an enhancement ratio greater than 1 and less than 10) | C (A “C” value indicates an enhancement ratio greater than 1 and less than 10) |
| COc1cc(OC)nc(N2CCC[C@H](COc3cccc4c3C(N)=NS(=O)(=O)N4)C2)n1 [Compound 306] | C (A “C” value indicates an enhancement ratio greater than 1 and less than 10) | B (A “B” value indicates an enhancement ratio from 10 to 20) | B (A “B” value indicates an enhancement ratio from 10 to 20) | C (A “C” value indicates an enhancement ratio greater than 1 and less than 10) | C (A “C” value indicates an enhancement ratio greater than 1 and less than 10) | C (A “C” value indicates an enhancement ratio greater than 1 and less than 10) | – |
| Cc1cc(C(=O)O)nc(N2CCC[C@H](COc3cccc4c3C(N)=NS(=O)(=O)N4)C2)n1 [Compound 307] | C (A “C” value indicates an enhancement ratio greater than 1 and less than 10) | A (An “A” value indicates an enhancement ratio of greater than 20) | A (An “A” value indicates an enhancement ratio of greater than 20) | C (A “C” value indicates an enhancement ratio greater than 1 and less than 10) | C (A “C” value indicates an enhancement ratio greater than 1 and less than 10) | C (A “C” value indicates an enhancement ratio greater than 1 and less than 10) | C (A “C” value indicates an enhancement ratio greater than 1 and less than 10) |
| CC(C)CNC(=O)c1ccc(N2CCC[C@H](COc3cccc4c3C(N)=NS(=O)(=O)N4)C2)nc1 [Compound 515] | C (A “C” value indicates an enhancement ratio greater than 1 and less than 10) | A (An “A” value indicates an enhancement ratio of greater than 20) | A (An “A” value indicates an enhancement ratio of greater than 20) | C (A “C” value indicates an enhancement ratio greater than 1 and less than 10) | C (A “C” value indicates an enhancement ratio greater than 1 and less than 10) | C (A “C” value indicates an enhancement ratio greater than 1 and less than 10) | C (A “C” value indicates an enhancement ratio greater than 1 and less than 10) |
| CCCNC(=O)c1ccc(N2CCC[C@H](COc3cccc4c3C(N)=NS(=O)(=O)N4)C2)nc1 [Compound 502] | C (A “C” value indicates an enhancement ratio greater than 1 and less than 10) | A (An “A” value indicates an enhancement ratio of greater than 20) | A (An “A” value indicates an enhancement ratio of greater than 20) | C (A “C” value indicates an enhancement ratio greater than 1 and less than 10) | C (A “C” value indicates an enhancement ratio greater than 1 and less than 10) | C (A “C” value indicates an enhancement ratio greater than 1 and less than 10) | C (A “C” value indicates an enhancement ratio greater than 1 and less than 10) |
| NC1=NS(=O)(=O)Nc2cccc(OC[C@H]3CCCN(c4cc(C(=O)N5CCCCC5)ccn4)C3)c21 [Compound 613] | – | A (An “A” value indicates an enhancement ratio of greater than 20) | A (An “A” value indicates an enhancement ratio of greater than 20) | – | C (A “C” value indicates an enhancement ratio greater than 1 and less than 10) | C (A “C” value indicates an enhancement ratio greater than 1 and less than 10) | – |
